According to ChEMBL document CHEMBL1909569 (Bioorg Med Chem Lett, 2011):

What was measured:
[1] = (§1) Inhibition of Mycobacterium tuberculosis expressing RNA polymerase RpoB S450L mutant after 10 mins using ribo green by rolling circle transcription assay
[2] = system: Mycobacterium tuberculosis; experiment: as §1
[3] = system: Mycobacterium tuberculosis; experiment: Ratio of compound MIC90 to Rifampin S MIC90 for Mycobacterium tuberculosis RNA polymerase RpoB S450L mutant
[4] = system: Mycobacterium tuberculosis; experiment: Ratio of compound MIC90 to Rifamycin S MIC90 for Mycobacterium tuberculosis RNA polymerase RpoB S450L mutant

Question: For CO[C@H]1/C=C/O[C@@]2(C)Oc3c(C)c(SC)c4c(c3C2=O)C(=O)C=C(NC(=O)/C(C)=C\C=C\[C@H](C)[C@H](O)[C@@H](C)[C@@H](O)[C@@H](C)[C@H](OC(C)=O)[C@@H]1C)C4=O, which IC50 [1] is on record?
Answer: The IC50 was 37.5 µM.

Question: And the logIC50 [2]?
Answer: The logIC50 was 1.57.

Question: With CO[C@H]1/C=C/O[C@@]2(C)Oc3c(C)c(N)c4c(c3C2=O)C(=O)C=C(NC(=O)/C(C)=C\C=C\[C@H](C)[C@H](O)[C@@H](C)[C@@H](O)[C@@H](C)[C@H](OC(C)=O)[C@@H]1C)C4=O as the compound, how does the IC50 [1] read?
Answer: The IC50 was 186 µM.

Question: What about the logIC50 [2] of the same compound?
Answer: Its logIC50 is 2.27.

Question: And the Ratio IC50 [3]?
Answer: The Ratio IC50 was 3.

Question: What does the source list for CO[C@H]1/C=C/O[C@@]2(C)Oc3c(C)c(O)c4c(c3C2=O)C(=O)C=C(NC(=O)/C(C)=C\C=C\[C@H](C)[C@H](O)[C@@H](C)[C@@H](O)[C@@H](C)[C@H](OC(C)=O)[C@@H]1C)C4=O [RIFAMYCIN S]?
Answer: IC50 [1]: 36 µM; logIC50 [2]: 1.56

Question: Which results are given for CO[C@H]1/C=C/O[C@@]2(C)Oc3c(C)c(N(C)C)c4c(c3C2=O)C(=O)C=C(NC(=O)/C(C)=C\C=C\[C@H](C)[C@H](O)[C@@H](C)[C@@H](O)[C@@H](C)[C@H](OC(C)=O)[C@@H]1C)C4=O?
Answer: IC50 [1]: 270 µM; logIC50 [2]: 2.43; Ratio IC50 [3]: 3

Question: For CO[C@H]1/C=C/O[C@@]2(C)Oc3c(C)c(OS(=O)(=O)c4ccc(C)cc4)c4c(c3C2=O)C(=O)C=C(NC(=O)/C(C)=C\C=C\[C@H](C)[C@H](O)[C@@H](C)[C@@H](O)[C@@H](C)[C@H](OC(C)=O)[C@@H]1C)C4=O, which Ratio [4] is on record?
Answer: The Ratio was 5.

Question: What about the IC50 [1] of the same compound?
Answer: Its IC50 is 982 µM.

Question: And the logIC50 [2]?
Answer: The logIC50 was 2.99.

Question: Which results are given for CO[C@H]1/C=C/O[C@@]2(C)Oc3c(c4c5c(nn(CCO)c5c3C)C(=C(/C=N/N3CCN(C)CC3)C4=O)NC(=O)/C(C)=C\C=C\[C@H](C)[C@H](O)[C@@H](C)[C@@H](O)[C@@H](C)[C@H](OC(C)=O)[C@@H]1C)C2=O?
Answer: IC50 [1]: 29.9 µM; logIC50 [2]: 1.48

Question: With CO[C@H]1/C=C/O[C@@]2(C)Oc3c(C)c(NC4CCCCCC4)c4c(c3C2=O)C(=O)C=C(NC(=O)/C(C)=C\C=C\[C@H](C)[C@H](O)[C@@H](C)[C@@H](O)[C@@H](C)[C@H](OC(C)=O)[C@@H]1C)C4=O as the compound, how does the IC50 [1] read?
Answer: The IC50 was 127 µM.

Question: What about the logIC50 [2] of the same compound?
Answer: The logIC50 was 2.1.

Question: And the Ratio IC50 [3]?
Answer: The Ratio IC50 was 3.

Question: For CO[C@H]1/C=C/O[C@@]2(C)Oc3c(C)c(O)c4c(c3C2=O)C(=O)C(/C=N/N2CCN(C)CC2)=C(NC(=O)/C(C)=C\C=C\[C@H](C)[C@H](O)[C@@H](C)[C@@H](O)[C@@H](C)[C@H](OC(C)=O)[C@@H]1C)C4=O [RIFAMPIN S], which IC50 [1] is on record?
Answer: The IC50 was 46.5 µM.

Question: And the logIC50 [2]?
Answer: Its logIC50 is 1.67.
